Measured values published in patent US20220354826A1, “PLEUROMUTILIN (E)-4-(1-IMIDAZOYLMETHYL )CINNAMIC ACID ESTER WITH ANTI-DRUG RESISTANT BACTERIA ACTIVITY AND A METHOD OF PREPARING THE SAME” (SHAANXI UNIVERSITY OF SCIENCE AND TECHNOLOGY, priority 2021, published 2022).

Assays:
Format in all cases: cell-based
[1] = test system: multi-resistant Staphylococcus aureus 222 (MRSA-222); assay: Paper diffusion method drug sensitivity test, MRSA-222; conditions: for inhibitory effect (in words): multi-drug resistant Staphylococcus aureus 222, paper diffusion; for Zone of inhibition: strain MRSA-222, drug sensitive paper 30 μg/tablet, 6.35 mm, LB plate, 37° C., 24 h, ≥17 mm sensitive, 15-16 mm intermediary, ≤14 mm resistance
Experimental: (§1) The antimicrobial efficacy was determined by a paper diffusion method drug sensitivity test.
(§2) Experimental strains: multi-resistant Staphylococcus aureus 171, multi-resistant Staphylococcus aureus 222, multi-resistant Staphylococcus aureus 575. The experimental strains were identified by Huashan Hospital Affiliated to Fudan University (Institute of Antibiotic of Fudan University).
(§3) Drug sensitive paper: The drug sensitive paper is a special drug sensitive paper with a diameter of 6.35 mm and a water absorption of 0.02 mL. The control drug was vancomycin (30 μg/tablet); the test drugs were pleuromutilin (E)-4-(1-imidazoyl-methyl)cinnamic acid ester (30 μg/tablet).
(§4) The experimental strains were inoculated in non-selective medium and placed in air at 37° C. for 24 h. Pick a single colony that grows well and inoculate it into broth medium, incubate at 35° C.±2° C. for 6 hours, and use LA broth medium to calibrate the concentration of the bacterial solution to 0.5 Mie turbidimetric tube ([…]). A bacterial suspension is obtained.
(§5) LB dry powder was weighed, sterilized at 103.4 Kpa, 121.3° C. high-pressure steam for 15 min, and then placed it in a 40° C.-50° C. water bath. A sterile empty plate (inner diameter 9 cm) was placed on the surface of the ultra-clean table water table, and […] to the plate. The thickness of each plate was 3 mm to 4 mm. After the plate was cooled at room temperature, it was stored in the refrigerator at 2° C.-8° C. A sterile cotton swab was used to dip the bacterial solution and to evenly coat the surface of the LB plate 3 times. After inoculation of the bacterial suspension, the LB plate was dried at room temperature for 3 min to 5 min. Sterile forceps were used to closely attach the antibacterial drug paper to the dish. The dish was put upside down and placed in a 37° C. incubator for 24 h. The results were observed by measuring the diameter. Taking 0.5% DMSO solution as a negative control, the antibacterial activity is expressed by the diameter of the inhibition zone. The inhibition zone ≥17 mm, sensitive; the inhibition zone of 15 mm-16 mm, intermediary; the inhibition zone ≤14 mm, drug resistance.

[2] = test system: multi-resistant Staphylococcus aureus 575 (MRSA-575); assay: Paper diffusion method drug sensitivity test, MRSA-575; conditions: for inhibitory effect (in words): multi-drug resistant Staphylococcus aureus 575, paper diffusion; for Zone of inhibition: strain MRSA-575, drug sensitive paper 30 μg/tablet, 6.35 mm, LB plate, 37° C., 24 h, ≥17 mm sensitive, 15-16 mm intermediary, ≤14 mm resistance
Experimental: as §1, §2, §3, §4, §5

[3] = test system: multi-resistant Staphylococcus aureus 171 (MRSA-171); assay: Paper diffusion method drug sensitivity test, MRSA-171; conditions: for inhibitory effect (in words): multi-drug resistant Staphylococcus aureus 171, paper diffusion; for Zone of inhibition: strain MRSA-171, drug sensitive paper 30 μg/tablet, 6.35 mm, LB plate, 37° C., 24 h, ≥17 mm sensitive, 15-16 mm intermediary, ≤14 mm resistance
Experimental: as §1, §2, §3, §4, §5

| SMILES | inhibitory effect (in words) [1] | Zone of inhibition [1] [mm] | inhibitory effect (in words) [2] | Zone of inhibition [2] [mm] | inhibitory effect (in words) [3] | Zone of inhibition [3] [mm] |
| --- | --- | --- | --- | --- | --- | --- |
| C=C[C@]1(C)C[C@@H](OC(=O)COC(=O)/C=C/c2ccc(Cn3ccnc3)cc2)[C@]2(C)[C@H](C)CC[C@]3(CCC(=O)[C@H]32)[C@@H](C)[C@@H]1O | strong inhibitory effects | 17 | strong inhibitory effects | 15 | strong inhibitory effects | 16 |
| O=C(O)/C=C/c1ccc(Cn2ccnc2)cc1 [(E)-4-(1-imidazoylmethyl)cinnamic acid] | no inhibitory effect | 0 | no inhibitory effect | 0 | no inhibitory effect | 0 |
| C=C[C@]1(C)C[C@@H](OC(=O)CO)[C@]2(C)[C@H](C)CC[C@]3(CCC(=O)[C@H]32)[C@@H](C)[C@@H]1O [Pleuromutilin] | no inhibitory effect | 0 | no inhibitory effect | 0 | no inhibitory effect | 0 |
| CN[C@H](CC(C)C)C(=O)N[C@H]1C(=O)N[C@@H](CC(N)=O)C(=O)N[C@H]2C(=O)N[C@H]3C(=O)N[C@H](C(=O)N[C@H](C(=O)O)c4cc(O)cc(O)c4-c4cc3ccc4O)[C@H](O)c3ccc(c(Cl)c3)Oc3cc2cc(c3O[C@@H]2O[C@H](CO)[C@@H](O)[C@H](O)[C@H]2O[C@H]2C[C@](C)(N)[C@H](O)[C@H](C)O2)Oc2ccc(cc2Cl)[C@H]1O [Vancomycin, vancomycin] |  | 18 |  | 21 |  | 17 |
